Experimental data taken from ChEMBL document CHEMBL1201862, “PubChem BioAssay data set” (2004).
Calls of active or inactive are those of the source.

Tests used:
[1] = target: T1, RNA-binding protein pos-1 (Caenorhabditis elegans, UniProt G5EF15); test: disruptors of C. elegans POS-1 RNA interaction – biochemical, fluorescence polarization, dose response (AID 1964);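 also: purified POS-1 fused to maltose binding protein made in E. coli; potency of compounds blocking POS-1 binding to fluorescent RNA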
T1 sequence (G5EF15 whole entry): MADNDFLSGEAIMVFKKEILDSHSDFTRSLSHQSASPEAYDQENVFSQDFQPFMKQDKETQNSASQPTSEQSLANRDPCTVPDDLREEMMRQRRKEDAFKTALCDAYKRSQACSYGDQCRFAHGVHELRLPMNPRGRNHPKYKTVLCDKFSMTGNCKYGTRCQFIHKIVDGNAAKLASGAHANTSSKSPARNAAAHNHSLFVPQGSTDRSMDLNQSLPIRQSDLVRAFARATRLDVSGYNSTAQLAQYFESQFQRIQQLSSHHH

[2] = target: T2, Zinc finger protein mex-5 (Caenorhabditis elegans, UniProt Q9XUB2); test: potency of MEX-5 RNA-binding blockers – biochemical, C. elegans, fluorescence polarization, dose response (AID 1960)
T2 sequence (Q9XUB2 whole entry): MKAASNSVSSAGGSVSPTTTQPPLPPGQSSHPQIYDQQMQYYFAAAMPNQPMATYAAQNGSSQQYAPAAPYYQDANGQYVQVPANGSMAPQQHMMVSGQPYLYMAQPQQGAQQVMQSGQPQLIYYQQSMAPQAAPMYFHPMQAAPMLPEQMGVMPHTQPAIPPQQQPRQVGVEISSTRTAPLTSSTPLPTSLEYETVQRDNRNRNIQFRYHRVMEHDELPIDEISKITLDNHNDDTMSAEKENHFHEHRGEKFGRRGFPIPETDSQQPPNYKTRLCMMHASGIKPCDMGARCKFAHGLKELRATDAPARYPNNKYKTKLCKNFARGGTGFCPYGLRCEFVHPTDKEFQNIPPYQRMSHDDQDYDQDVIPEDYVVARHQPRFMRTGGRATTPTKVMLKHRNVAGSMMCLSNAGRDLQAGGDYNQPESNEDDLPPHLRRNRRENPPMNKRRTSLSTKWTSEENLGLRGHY

[3] = tested on: BJ; test: BJ-TERT fibroblast viability loss – cell-based, RAS-independent, luminescence, dose response (AID 1933); assay type: functional; settings: Homo sapiens
[4] = tested on: BJ; test: cells; assay type: functional, cell-based; settings: Homo sapiens
[5] = DRD fibroblast viability loss – cell-based, non-viral oncogenic, luminescence, dose response (AID 1934); assay type: functional; settings: Homo sapiens
[6] = tested on: BJ; test: BJ-TERT-LT-ST fibroblast viability loss – cell-based, RAS-independent, luminescence, dose response (AID 1935); assay type: functional; settings: Homo sapiens;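 also: BJ fibroblasts immortalized with TERT plus LT and ST oncogenes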
[7] = HEK-293T viability loss after treatment – luminescence, T-cell screen hits, cytotoxicity control for TCR NF-kB inhibitor project, dose response (AID 489026); assay type: functional, cell-based;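 also: cells exposed to compound about 14 hours before the viability readout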
[8] = Trypanosoma cruzi growth suppression in host cells – NIH3T3 host cells, beta-gal luminescence, confirmation (AID 2044); assay type: functional, cell-based;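 also: intracellular parasites grown in NIH/3T3 mouse fibroblasts as host cells; luminescent beta-galactosidase reporter signal from transgenic T. cruzi replicating inside host cells; inhibitors lower the luminescence signal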
[9] = NIH3T3 cell viability loss – ATP luminescence, mouse fibroblasts, counter-screen, dose response (AID 2010); assay type: functional, cell-based;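 also: cells exposed to compound for about 90 hours before reading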
[10] = target: T3, Polyadenylate-binding protein 1 (Homo sapiens, UniProt P11940); test: MLLE domain peptide-binding blockers, IC50 – biochemical, fluorescence polarization, FITC-PAM2 peptide, dose response (AID 602259); assay type: functional; settings: read-out: IC50_Mean
T3 sequence (P11940 whole entry, the tested form may be a part): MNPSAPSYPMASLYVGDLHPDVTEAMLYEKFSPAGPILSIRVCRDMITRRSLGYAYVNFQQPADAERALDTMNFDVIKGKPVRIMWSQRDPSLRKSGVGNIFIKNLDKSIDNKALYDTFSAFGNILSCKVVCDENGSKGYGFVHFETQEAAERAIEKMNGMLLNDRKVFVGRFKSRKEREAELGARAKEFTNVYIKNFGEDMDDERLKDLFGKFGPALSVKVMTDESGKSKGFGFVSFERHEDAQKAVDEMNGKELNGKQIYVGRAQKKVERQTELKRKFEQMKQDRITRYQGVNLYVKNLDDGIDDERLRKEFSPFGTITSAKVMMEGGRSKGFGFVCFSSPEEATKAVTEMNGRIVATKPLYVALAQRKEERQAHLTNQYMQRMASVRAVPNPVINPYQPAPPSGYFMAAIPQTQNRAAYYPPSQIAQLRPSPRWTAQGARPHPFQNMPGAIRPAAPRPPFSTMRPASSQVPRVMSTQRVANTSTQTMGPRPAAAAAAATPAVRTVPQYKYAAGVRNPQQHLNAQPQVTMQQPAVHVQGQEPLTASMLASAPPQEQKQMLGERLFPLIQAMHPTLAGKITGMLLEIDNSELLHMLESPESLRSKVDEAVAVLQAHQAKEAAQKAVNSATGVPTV

[11] = target: T4, Corticotropin-releasing factor receptor 2/Corticotropin-releasing factor-binding protein (Homo sapiens, UniProt P24387+Q13324); test: activators of CRF receptor 2 with binding protein – uHTS hits, confirmation (AID 602473); assay type: functional; settings: read-out: EC50_Mean
T4 sequence (Q13324 whole entry): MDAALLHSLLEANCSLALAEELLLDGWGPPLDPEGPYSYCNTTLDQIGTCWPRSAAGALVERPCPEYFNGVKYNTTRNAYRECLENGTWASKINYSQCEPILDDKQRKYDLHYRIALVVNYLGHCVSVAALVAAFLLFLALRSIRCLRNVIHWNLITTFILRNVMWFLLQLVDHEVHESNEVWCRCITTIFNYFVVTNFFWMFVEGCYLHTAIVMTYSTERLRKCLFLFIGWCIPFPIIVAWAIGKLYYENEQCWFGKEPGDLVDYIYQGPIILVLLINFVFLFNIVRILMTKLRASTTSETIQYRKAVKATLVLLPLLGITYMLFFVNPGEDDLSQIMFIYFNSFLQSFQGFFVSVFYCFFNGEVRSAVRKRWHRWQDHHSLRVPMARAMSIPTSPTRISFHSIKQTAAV
T4 sequence (P24387 whole entry): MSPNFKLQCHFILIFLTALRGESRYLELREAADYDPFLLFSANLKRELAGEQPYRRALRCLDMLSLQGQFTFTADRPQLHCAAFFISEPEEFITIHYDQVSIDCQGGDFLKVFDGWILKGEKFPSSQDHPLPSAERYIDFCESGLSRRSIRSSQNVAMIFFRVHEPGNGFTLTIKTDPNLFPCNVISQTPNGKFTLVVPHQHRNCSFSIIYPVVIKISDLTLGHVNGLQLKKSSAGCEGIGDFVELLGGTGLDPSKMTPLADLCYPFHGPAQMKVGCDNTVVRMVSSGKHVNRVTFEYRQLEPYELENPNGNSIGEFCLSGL

[12] = target: T3, Polyadenylate-binding protein 1; test: MLLE binding blockers, Cy5 peptide tracer – biochemical, fluorescence polarization, Cy5-PAM2 peptide, secondary, miRNA deadenylation inhibitor project, dose response (AID 602260); assay type: functional; settings: read-out: IC50_Mean
[13] = target: Cytochrome P450 2C9 (Homo sapiens, UniProt P11712)
Chain of Cytochrome P450 2C9 (P11712 whole entry): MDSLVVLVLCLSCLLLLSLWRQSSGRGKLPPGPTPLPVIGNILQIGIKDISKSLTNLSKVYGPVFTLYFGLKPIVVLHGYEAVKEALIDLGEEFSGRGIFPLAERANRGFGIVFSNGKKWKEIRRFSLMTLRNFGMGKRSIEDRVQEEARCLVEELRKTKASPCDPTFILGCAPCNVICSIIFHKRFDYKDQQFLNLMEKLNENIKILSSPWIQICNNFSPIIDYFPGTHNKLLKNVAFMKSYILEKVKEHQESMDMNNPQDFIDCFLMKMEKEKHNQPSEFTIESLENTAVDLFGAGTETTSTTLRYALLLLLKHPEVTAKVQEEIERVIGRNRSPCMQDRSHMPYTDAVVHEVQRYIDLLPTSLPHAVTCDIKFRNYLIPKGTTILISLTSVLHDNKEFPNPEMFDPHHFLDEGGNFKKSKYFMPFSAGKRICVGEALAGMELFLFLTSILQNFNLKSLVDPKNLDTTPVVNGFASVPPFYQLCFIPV

[14] = target: Cytochrome P450 2C19 (Homo sapiens, UniProt P33261); test: Cytochrome panel assay with activity outcomes. Panel member name: p450-cyp2c19 Compounds with AC50 equal or less than 10 uM are considered active; assay type: functional; settings: read-out: AC50
Chain of Cytochrome P450 2C19 (P33261 whole entry): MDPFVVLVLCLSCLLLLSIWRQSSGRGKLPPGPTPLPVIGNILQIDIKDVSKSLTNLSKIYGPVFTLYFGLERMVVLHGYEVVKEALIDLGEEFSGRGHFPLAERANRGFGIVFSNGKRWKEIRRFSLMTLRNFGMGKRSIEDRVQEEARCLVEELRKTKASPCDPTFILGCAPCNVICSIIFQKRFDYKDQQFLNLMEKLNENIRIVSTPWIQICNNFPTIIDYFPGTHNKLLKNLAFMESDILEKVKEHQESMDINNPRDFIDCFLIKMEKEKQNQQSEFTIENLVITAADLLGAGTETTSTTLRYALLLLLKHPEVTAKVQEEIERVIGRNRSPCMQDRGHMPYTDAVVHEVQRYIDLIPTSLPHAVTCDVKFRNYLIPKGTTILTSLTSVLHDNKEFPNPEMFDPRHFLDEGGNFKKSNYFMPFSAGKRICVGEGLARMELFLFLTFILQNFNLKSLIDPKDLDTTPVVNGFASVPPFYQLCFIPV

[15] = loss of viability in HepG2 cells – cell-based, CellTiter-Glo, cherry-picked, cytotoxicity control for Shn3 inhibitor project, dose response (AID 624134); assay type: functional
[16] = non-specific 3'UTR reporter inhibition in Clone20-Shn3RL – cell-based, Renilla luciferase, cherry-picked, counter-screen for Shn3 inhibitor project, dose response (AID 624133); assay type: functional
[17] = reduction of Shn3 3'UTR-driven luciferase in osteoblasts – cell-based, Clone20 osteoblasts, firefly luciferase, cherry-picked, dose response (AID 624132); assay type: functional;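 also: firefly luciferase luminescence from reporter carrying the Shn3 3'UTR in osteoblasts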
[18] = blockers of bursicon-stimulated LGR2 cAMP reporter – cell-based, HEK293, CRE-luciferase reporter, cherry pick, set 2, dose response (AID 743343); assay type: functional;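 also: transfected cells were stimulated with diluted bursicon conditioned medium after compound addition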
[19] = blockade of melanocortin 4 receptor signaling – cell-based, plate reader, cherry pick, counter-screen for LGR2 antagonist project, dose response (AID 743444); assay type: functional;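 also: transfected HEK 293 cells stimulated with alpha-MSH peptide; potency of inhibitors of the alpha-MSH evoked signal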
[20] = intracellular Trypanosoma cruzi inhibitors in host cells – cell-based, plate reader, cherry-pick samples, set 3, dose response (AID 651818); assay type: functional;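 also: compounds incubated with infected cells for about four days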

**Q.** Which EC50 [1] does the source give for `NC(=O)c1snnc1-c1ccccc1` here?
**A.** Its EC50 is > 300 µM (not active).

**Q.** And the EC50 [2]?
**A.** Its EC50 is > 300 µM (not active).

**Q.** For `COc1ccccc1NC(=O)Cn1nnc(C(=O)NCc2cccs2)c1N`, which EC50 [3] is on record?
**A.** Its EC50 is 1.96 µM (active).

**Q.** And the EC50 [4]?
**A.** Its EC50 is 19.3 µM (active).

**Q.** What about the EC50 [5] of the same molecule?
**A.** The EC50 was 1.18 µM (active).

**Q.** And the EC50 [6]?
**A.** The EC50 was 1.41 µM (active).

**Q.** And the IC50 [7]?
**A.** Its IC50 is > 80 µM (inactive).

**Q.** Which IC50 [7] does the source give for `COc1ccc(/C=C2/C(=O)OCc3cc(OC)c(OC)cc32)cc1` here?
**A.** The IC50 was 78.5 µM (inactive).

**Q.** With `CN1Cc2c(N3CCOCC3)nc(SCc3ccccc3)c(C#N)c2CC1(C)C` as the molecule, how does the EC50 [8] read?
**A.** The EC50 was 0.62 µM (active).

**Q.** And the EC50 [9]?
**A.** Its EC50 is > 60 µM (not active).

**Q.** What about the IC50 [10] of the same molecule?
**A.** Its IC50 is > 66 µM (inactive).

**Q.** What about the EC50 [11] of the same molecule?
**A.** Its EC50 is > 53 µM (inactive).

**Q.** What about the IC50 [12] of the same molecule?
**A.** Its IC50 is > 66 µM (inactive).

**Q.** Which results are given for `CCC(=S)/C=C1\Sc2ccc3ccccc3c2N1CCCS(=O)(=O)O`?
**A.** EC50 [1]: > 300 µM (not active); AC50 [13]: 20 µM (inconclusive); EC50 [2]: > 300 µM (not active); AC50 [14]: 28.2 µM (inconclusive)

**Q.** With `O=C(Nc1nc(-c2ccccc2)cs1)c1ccc(N2CCOCC2)c([N+](=O)[O-])c1` as the molecule, how does the EC50 [8] read?
**A.** The EC50 was 0.895 µM (active).

**Q.** And the EC50 [9]?
**A.** The EC50 was > 60 µM (inconclusive).

**Q.** And the AC50 [15]?
**A.** Its AC50 is 1.59 µM (active).

**Q.** And the AC50 [16]?
**A.** Its AC50 is 3.52 µM (active).

**Q.** And the IC50 [7]?
**A.** The IC50 was 10.2 µM (active).

**Q.** And the AC50 [17]?
**A.** The AC50 was 3.75 µM (active).

**Q.** For `O=C(c1ccc(C[S+]([O-])c2ccccc2Cl)o1)N1CCN(c2ccccn2)CC1` (configuration not stated), which IC50 [7] is on record?
**A.** The IC50 was > 80 µM (inactive).

**Q.** With `O=C(COC(=O)CCc1c[nH]c(=O)[nH]1)Nc1ccccc1Cl` as the molecule, how does the EC50 [1] read?
**A.** The EC50 was > 300 µM (not active).

**Q.** And the EC50 [2]?
**A.** Its EC50 is 53.5 µM (active).

**Q.** With `CCCC(=O)N1CCCC(c2cc(C(=O)Nc3ccccc3)no2)C1` (configuration not stated) as the molecule, how does the AC50 [18] read?
**A.** Its AC50 is 1.89 µM (active).

**Q.** And the AC50 [19]?
**A.** The AC50 was 2.37 µM (active).

**Q.** Which AC50 [20] does the source give for `O=C(N/N=C/c1cc(I)cc(I)c1O)c1ccccc1O` here?
**A.** Its AC50 is 3.17 µM (active).

**Q.** With `C[C@@H]1CN([C@H](C)CO)C(=O)Cc2cc(NC(=O)Nc3ccc(C(F)(F)F)cc3)ccc2O[C@@H]1CN(C)Cc1ccccc1` as the molecule, how does the AC50 [20] read?
**A.** The AC50 was 1.94 µM (active).

**Q.** For `C[C@H]1CN([C@@H](C)CO)C(=O)c2cc(NC(=O)Nc3ccc(C(F)(F)F)cc3)ccc2O[C@H]1CN(C)Cc1ccc(Oc2ccccc2)cc1`, which AC50 [20] is on record?
**A.** The AC50 was 3.42 µM (active).

**Q.** For `C[C@H](CO)N1C[C@H](C)[C@H](CN(C)Cc2ccc(Cl)c(Cl)c2)Oc2ccc(NC(=O)Nc3ccc4c(c3)OCO4)cc2CC1=O`, which AC50 [20] is on record?
**A.** The AC50 was 6.16 µM (active).

**Q.** For `C[C@@H]1CN([C@H](C)CO)C(=O)c2cccc(NC(=O)Nc3ccccc3)c2O[C@H]1CN(C)Cc1ccc(C(=O)Nc2ccccc2N)cc1`, which AC50 [20] is on record?
**A.** The AC50 was 2.02 µM (active).

**Q.** Which AC50 [20] does the source give for `Cc1noc(C)c1NC(=O)Nc1cccc2c1O[C@H](CN(C)Cc1ccc(C(=O)Nc3ccccc3N)cc1)[C@@H](C)CN([C@@H](C)CO)C2=O` here?
**A.** Its AC50 is 3.76 µM (active).

**Q.** With `C[C@@H]1CN([C@@H](C)CO)C(=O)c2cccc(NC(=O)C3CCCCC3)c2O[C@H]1CN(C)Cc1ccc(Oc2ccccc2)cc1` as the molecule, how does the AC50 [20] read?
**A.** The AC50 was 1.71 µM (active).

**Q.** Which AC50 [20] does the source give for `Cc1ccc(S(=O)(=O)Nc2ccc3c(c2)CC(=O)N([C@H](C)CO)C[C@@H](C)[C@H](CN(C)Cc2ccc(Cl)c(Cl)c2)O3)cc1` here?
**A.** Its AC50 is 2.04 µM (active).

**Q.** With `C[C@@H]1CN([C@@H](C)CO)C(=O)c2cc(NS(=O)(=O)c3ccc(F)cc3)ccc2O[C@H]1CN(C)Cc1ccc(-c2ccccc2)cc1` as the molecule, how does the AC50 [18] read?
**A.** The AC50 was 45.7 µM (active).

**Q.** And the AC50 [19]?
**A.** Its AC50 is 20.9 µM (active).

**Q.** What does the source list for `Cc1nn(-c2ccccc2)c(N2CCCC2)c1/C=N/NC(=O)c1cc(-c2cccnc2)nc2ccccc12`?
**A.** EC50 [1]: > 300 µM (not active); EC50 [2]: > 300 µM (not active); EC50 [8]: 0.306 µM (active); EC50 [9]: 32.8 µM (active)
